Test results published in patent US11090319B2, “Therapeutic uses of pharmaceutical compositions comprising cyclic boronic acid ester derivatives” (Melinta Subsidiary Corp., priority 2010, dated 2021).

Legend:
Test in all cases: Ceftazidime MIC with fixed concentration of BLI
Type in all cases: cell-based
[1] = test system: EC1009 Escherichia coli TEM-10; conditions: derivative at 10 μg/mL; EC1009 TEM-10
Experimental: (§1) Next, ceftazidime potentiation activity of several cyclic boronic acid ester derivatives was tested using a larger panel of strains expressing β-lactamase hydrolyzing enzymes. Ceftazidime MICs were determined alone and in the presence of fixed concentrations of various cyclic boronic acid ester derivatives.

[2] = test system: CF1000 Citrobacter freundii Hyper AmpC expression; conditions: derivative at 10 μg/mL
Experimental: as §1

[3] = test system: PAM2005 Pseudomonas aeruginosa ampC; conditions: derivative at 10 μg/mL
Experimental: as §1

[4] = test system: EC1004 Escherichia coli CMY-2; conditions: derivative at 10 μg/mL; EC1004 CMY-2
Experimental: as §1

[5] = test system: ec300 Escherichia coli TEM-3; conditions: derivative at 10 μg/mL; ec300 TEM-3
Experimental: as §1

[6] = test system: ECL1002 Enterobacter cloacae Hyper AmpC expression; conditions: derivative at 10 μg/mL
Experimental: as §1

[7] = test system: ec303 Escherichia coli TEM-12; conditions: derivative at 10 μg/mL; ec303 TEM-12
Experimental: as §1

[8] = test system: PAM2035 Pseudomonas aeruginosa ampC mexA:tet; conditions: derivative at 10 μg/mL
Experimental: as §1

[9] = test system: KP1007 Klebsiella pneumoniae OXA-10; conditions: derivative at 10 μg/mL; KP1007 OXA-10
Experimental: as §1

[10] = test system: EC1006 Escherichia coli FOX-5; conditions: derivative at 10 μg/mL; EC1006 FOX-5
Experimental: as §1

[11] = test system: ec310 Escherichia coli ACT-1; conditions: derivative at 10 μg/mL; ec310 ACT-1
Experimental: as §1

[12] = test system: KP1009 Klebsiella pneumoniae CTX-M-15; conditions: derivative at 10 μg/mL; KP1009 CTX-M-15
Experimental: as §1

[13] = test system: KP1012 Klebsiella pneumoniae SHV-18; conditions: derivative at 10 μg/mL; KP1012 SHV-18
Experimental: as §1

[14] = test system: ec306 Escherichia coli SHV-2; conditions: derivative at 10 μg/mL; ec306 SHV-2
Experimental: as §1

[15] = test system: EC1012 Escherichia coli TEM-12; conditions: derivative at 10 μg/mL; EC1012 TEM-12
Experimental: as §1

[16] = test system: AB1054 Acinetobacter baumannii OXA-23; conditions: derivative at 10 μg/mL; AB1054 OXA-23
Experimental: as §1

[17] = test system: ec302 Escherichia coli TEM-10; conditions: derivative at 10 μg/mL; ec302 TEM-10
Experimental: as §1

[18] = test system: EC1008 Escherichia coli CTX-M3; conditions: derivative at 10 μg/mL
Experimental: as §1

[19] = test system: ec308 Escherichia coli SHV-5; conditions: derivative at 10 μg/mL; ec308 SHV-5
Experimental: as §1

[20] = test system: ec309 Escherichia coli MIR-1; conditions: derivative at 10 μg/mL; ec309 MIR-1
Experimental: as §1

[21] = test system: EC1014 Escherichia coli DHA-1; conditions: derivative at 10 μg/mL; EC1014 DHA-1
Experimental: as §1

[22] = test system: EC1007 Escherichia coli KPC-3; conditions: derivative at 10 μg/mL; EC1007 KPC-3
Experimental: as §1

[23] = test system: ec301 Escherichia coli TEM-6; conditions: derivative at 10 μg/mL; ec301 TEM-6
Experimental: as §1

[24] = test system: pa1063 Pseudomonas aeruginosa GES-1; conditions: derivative at 10 μg/mL; pa1063 GES-1
Experimental: as §1

[25] = test system: AB1057 Acinetobacter baumannii OXA-58; conditions: derivative at 10 μg/mL; AB1057 OXA-58
Experimental: as §1

[26] = test system: KP1008 Klebsiella pneumoniae KPC-2; conditions: derivative at 10 μg/mL; KP1008 KPC-2
Experimental: as §1

[27] = test system: EC1011 Escherichia coli TEM-26; conditions: derivative at 10 μg/mL; EC1011 TEM-26
Experimental: as §1

[28] = test system: KX1000 Klebsiella oxytoca OXA-2; conditions: derivative at 10 μg/mL; KX1000 OXA-2
Experimental: as §1

[29] = test system: KP1004 Klebsiella pneumoniae KPC-2; conditions: derivative at 10 μg/mL; KP1004 KPC-2
Experimental: as §1

[30] = test system: EC1010 Escherichia coli CMY-6; conditions: derivative at 10 μg/mL; EC1010 CMY-6
Experimental: as §1

[31] = test system: KP1005 Klebsiella pneumoniae CTX-M-14; conditions: derivative at 10 μg/mL; KP1005 CTX-M-14
Experimental: as §1

SMILES	Ceftazidime MIC with cyclic boronic acid ester derivative [1]	Ceftazidime MIC with cyclic boronic acid ester derivative [2]	Ceftazidime MIC with cyclic boronic acid ester derivative [3]	Ceftazidime MIC with cyclic boronic acid ester derivative [4]	Ceftazidime MIC with cyclic boronic acid ester derivative [5]	Ceftazidime MIC with cyclic boronic acid ester derivative [6]	Ceftazidime MIC with cyclic boronic acid ester derivative [7]	Ceftazidime MIC with cyclic boronic acid ester derivative [8]	Ceftazidime MIC with cyclic boronic acid ester derivative [9]	Ceftazidime MIC with cyclic boronic acid ester derivative [10]	Ceftazidime MIC with cyclic boronic acid ester derivative [11]	Ceftazidime MIC with cyclic boronic acid ester derivative [12]	Ceftazidime MIC with cyclic boronic acid ester derivative [13]	Ceftazidime MIC with cyclic boronic acid ester derivative [14]	Ceftazidime MIC with cyclic boronic acid ester derivative [15]	Ceftazidime MIC with cyclic boronic acid ester derivative [16]	Ceftazidime MIC with cyclic boronic acid ester derivative [17]	Ceftazidime MIC with cyclic boronic acid ester derivative [18]	Ceftazidime MIC with cyclic boronic acid ester derivative [19]	Ceftazidime MIC with cyclic boronic acid ester derivative [20]	also measured
O=C(O)CC1CC[C@H](NC(=O)C2CC2)B(O)O1 (stereo partly drawn) [Compound 4, 2-((3R)-3-(cyclopropanecarboxamido)-2-hydroxy-1,2-oxaborinan-6-yl)acetic acid]	Z (MIC of greater than 8 μg/mL)	Z (MIC of greater than 8 μg/mL)	Z (MIC of greater than 8 μg/mL)	Y (MIC of greater than 1 μg/mL to 8 μg/mL)	Z (MIC of greater than 8 μg/mL)	Y (MIC of greater than 1 μg/mL to 8 μg/mL)	Z (MIC of greater than 8 μg/mL)	Z (MIC of greater than 8 μg/mL)	Z (MIC of greater than 8 μg/mL)	Z (MIC of greater than 8 μg/mL)	Y (MIC of greater than 1 μg/mL to 8 μg/mL)	Z (MIC of greater than 8 μg/mL)	Z (MIC of greater than 8 μg/mL)	Z (MIC of greater than 8 μg/mL)	Z (MIC of greater than 8 μg/mL)	Z (MIC of greater than 8 μg/mL)	Z (MIC of greater than 8 μg/mL)	Y (MIC of greater than 1 μg/mL to 8 μg/mL)	Z (MIC of greater than 8 μg/mL)	Y (MIC of greater than 1 μg/mL to 8 μg/mL)	Ceftazidime MIC with cyclic boronic acid ester derivative [21]: Y (MIC of greater than 1 μg/mL to 8 μg/mL); Ceftazidime MIC with cyclic boronic acid ester derivative [22]: X (MIC of 1 μg/mL or less); Ceftazidime MIC with cyclic boronic acid ester derivative [23]: Z (MIC of greater than 8 μg/mL); Ceftazidime MIC with cyclic boronic acid ester derivative [24]: Z (MIC of greater than 8 μg/mL); Ceftazidime MIC with cyclic boronic acid ester derivative [25]: Z (MIC of greater than 8 μg/mL); Ceftazidime MIC with cyclic boronic acid ester derivative [26]: X (MIC of 1 μg/mL or less); Ceftazidime MIC with cyclic boronic acid ester derivative [27]: Z (MIC of greater than 8 μg/mL); Ceftazidime MIC with cyclic boronic acid ester derivative [28]: Y (MIC of greater than 1 μg/mL to 8 μg/mL); Ceftazidime MIC with cyclic boronic acid ester derivative [29]: Y (MIC of greater than 1 μg/mL to 8 μg/mL); Ceftazidime MIC with cyclic boronic acid ester derivative [30]: Y (MIC of greater than 1 μg/mL to 8 μg/mL); Ceftazidime MIC with cyclic boronic acid ester derivative [31]: Z (MIC of greater than 8 μg/mL)
O=C(O)C[C@@H]1CC[C@H](NC(=O)Cc2cccs2)B(O)O1 [Compound 5, 2-((3R,6S)-2-hydroxy-3-(2-(thiophen-2-yl)acetamido)-1,2-oxaborinan-6-yl)acetic acid]	Z (MIC of greater than 8 μg/mL)	Y (MIC of greater than 1 μg/mL to 8 μg/mL)	Z (MIC of greater than 8 μg/mL)	Y (MIC of greater than 1 μg/mL to 8 μg/mL)	Y (MIC of greater than 1 μg/mL to 8 μg/mL)	Y (MIC of greater than 1 μg/mL to 8 μg/mL)	Y (MIC of greater than 1 μg/mL to 8 μg/mL)	Y (MIC of greater than 1 μg/mL to 8 μg/mL)	Y (MIC of greater than 1 μg/mL to 8 μg/mL)	Y (MIC of greater than 1 μg/mL to 8 μg/mL)	X (MIC of 1 μg/mL or less)	Z (MIC of greater than 8 μg/mL)	Y (MIC of greater than 1 μg/mL to 8 μg/mL)	Z (MIC of greater than 8 μg/mL)	Y (MIC of greater than 1 μg/mL to 8 μg/mL)	Z (MIC of greater than 8 μg/mL)	Z (MIC of greater than 8 μg/mL)	Y (MIC of greater than 1 μg/mL to 8 μg/mL)	Z (MIC of greater than 8 μg/mL)	X (MIC of 1 μg/mL or less)	Ceftazidime MIC with cyclic boronic acid ester derivative [21]: X (MIC of 1 μg/mL or less); Ceftazidime MIC with cyclic boronic acid ester derivative [22]: X (MIC of 1 μg/mL or less); Ceftazidime MIC with cyclic boronic acid ester derivative [23]: Z (MIC of greater than 8 μg/mL); Ceftazidime MIC with cyclic boronic acid ester derivative [24]: Z (MIC of greater than 8 μg/mL); Ceftazidime MIC with cyclic boronic acid ester derivative [25]: Z (MIC of greater than 8 μg/mL); Ceftazidime MIC with cyclic boronic acid ester derivative [26]: X (MIC of 1 μg/mL or less); Ceftazidime MIC with cyclic boronic acid ester derivative [27]: Z (MIC of greater than 8 μg/mL); Ceftazidime MIC with cyclic boronic acid ester derivative [28]: Y (MIC of greater than 1 μg/mL to 8 μg/mL); Ceftazidime MIC with cyclic boronic acid ester derivative [29]: Y (MIC of greater than 1 μg/mL to 8 μg/mL); Ceftazidime MIC with cyclic boronic acid ester derivative [30]: Y (MIC of greater than 1 μg/mL to 8 μg/mL); Ceftazidime MIC with cyclic boronic acid ester derivative [31]: Z (MIC of greater than 8 μg/mL)
